Source: US20080227797A1, “Pyridopyrimidine Derivatives as Pde4 Inhibitors for the Treatment of Inflammatory and Immune Diseases” (ASTRAZENECA AB, priority 2005, published 2008)

target: recombinant Human Phosphodiesterase B2 (PDE4B2) (Homo sapiens, UniProt Q07343); test: Human Phosphodiesterase B2 Alpha Screen Assay; type: biochemical; conditions: cAMP substrate, Alpha Screen cAMP kit, 60 minutes at room temperature
Method in brief: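 Recombinant human PDE4B2 preincubated 15 min at RT with compound in 50 mM Tris pH 7.5, 8.3 mM MgCl2, 1.7 mM EGTA, 0.01% Brij35, then reacted with cAMP for 60 min at RT. Stopped with EDTA; AlphaScreen beads with biotinylated cAMP incubated 5 h in the dark before reading. IC50 from curve fitting.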

Sequence of recombinant Human Phosphodiesterase B2 (PDE4B2) (Q07343 1-564 isoform Q07343-2): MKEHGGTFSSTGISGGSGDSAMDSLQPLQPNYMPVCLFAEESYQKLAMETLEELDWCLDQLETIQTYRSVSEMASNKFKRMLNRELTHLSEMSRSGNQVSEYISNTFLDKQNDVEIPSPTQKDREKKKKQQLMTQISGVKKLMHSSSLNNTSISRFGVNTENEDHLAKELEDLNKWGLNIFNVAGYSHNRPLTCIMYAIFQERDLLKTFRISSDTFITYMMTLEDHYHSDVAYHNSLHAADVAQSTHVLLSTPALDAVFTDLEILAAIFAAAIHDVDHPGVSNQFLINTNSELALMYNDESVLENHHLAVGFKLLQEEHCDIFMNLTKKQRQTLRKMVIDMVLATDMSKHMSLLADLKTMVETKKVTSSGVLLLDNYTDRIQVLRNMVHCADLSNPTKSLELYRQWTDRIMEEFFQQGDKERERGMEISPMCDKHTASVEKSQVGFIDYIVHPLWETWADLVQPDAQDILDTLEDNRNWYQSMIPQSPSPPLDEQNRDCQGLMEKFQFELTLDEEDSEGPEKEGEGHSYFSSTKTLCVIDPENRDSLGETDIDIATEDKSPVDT

Row | IC50 [nM] | SMILES
1 | 5.1 | COC(=O)c1cccc(-n2c(=O)n([C@H]3CC[C@@H](NC(=O)c4ccc(CN(C)C)o4)CC3)c(=O)c3cc(F)cnc32)c1 [Example 74, methyl 3-[3-[cis-4-({5-[(dimethylamino)methyl]-2-furoyl}amino)cyclohexyl]-6-fluoro-2,4-dioxo-3,4-dihydropyrido[2,3-d]pyrimidin-1(2H)-yl]benzoate]
2 | 2.6 | COC(=O)c1cccc(-n2c(=O)n([C@H]3CC[C@@H](NC(=O)C4CCCCC4)CC3)c(=O)c3cc(F)cnc32)c1 [Example 75, methyl 3-[3-{cis-4-[(cyclohexylcarbonyl)amino]cyclohexyl}-6-fluoro-2,4-dioxo-3,4-dihydropyrido[2,3-d]pyrimidin-1(2H)-yl]benzoate]
3 | 9.5 | O=C(c1n[nH]c2ccccc12)N1CCC(n2c(=O)c3cc(F)cnc3n(-c3ccc(F)c(F)c3)c2=O)CC1 [Example 76, 1-(3,4-difluorophenyl)-6-fluoro-3-[1-(1H-indazol-3-ylcarbonyl)piperidin-4-yl]pyrido[2,3-d]pyrimidine-2,4(1H,3H)-dione]
4 | 147 | O=C([C@H](O)c1ccccc1)N1CCC(n2c(=O)c3cc(F)cnc3n(-c3ccc(F)c(F)c3)c2=O)CC1 [Example 77, 1-(3,4-difluorophenyl)-6-fluoro-3-{1-[(2R)-2-hydroxy-2-phenylacetyl]piperidin-4-yl}pyrido[2,3-d]pyrimidine-2,4(1H,3H)-dione]
5 | 293 | O=C(c1cc(CO)ccc1O)N1CCC(n2c(=O)c3cc(F)cnc3n(-c3ccc(F)c(F)c3)c2=O)CC1 [Example 78, 1-(3,4-difluorophenyl)-6-fluoro-3-{1-[2-hydroxy-5-(hydroxymethyl)benzoyl]piperidin-4-yl}pyrido[2,3-d]pyrimidine-2,4(1H,3H)-dione]
6 | 15.4 | O=C(c1n[nH]c2ccccc12)N1CC[C@@H](n2c(=O)c3cc(F)cnc3n(-c3ccc(F)c(F)c3)c2=O)C1 [Example 79, 1-(3,4-difluorophenyl)-6-fluoro-3-[(3R)-1-(1H-indazol-3-ylcarbonyl)pyrrolidin-3-yl]pyrido[2,3-d]pyrimidine-2,4(1H,3H)-dione]
7 | 73.3 | O=C([C@H](O)c1ccccc1)N1CC[C@@H](n2c(=O)c3cc(F)cnc3n(-c3ccc(F)c(F)c3)c2=O)C1 [Example 80, 1-(3,4-difluorophenyl)-6-fluoro-3-{(3R)-1-[(2R)-2-hydroxy-2-phenylacetyl]pyrrolidin-3-yl}pyrido[2,3-d]pyrimidine-2,4(1H,3H)-dione]
8 | 8.1 | O=C([C@H](O)C1CCCCC1)N1CC[C@@H](n2c(=O)c3cc(F)cnc3n(-c3ccc(F)c(F)c3)c2=O)C1 [Example 81, 3-{(3R)-1-[(2R)-2-cyclohexyl-2-hydroxyacetyl]pyrrolidin-3-yl}-1-(3,4-difluorophenyl)-6-fluoropyrido[2,3-d]pyrimidine-2,4(1H,3H)-dione]
9 | 71.8 | O=C(c1cc(CO)ccc1O)N1CC[C@@H](n2c(=O)c3cc(F)cnc3n(-c3ccc(F)c(F)c3)c2=O)C1 [Example 82, 1-(3,4-difluorophenyl)-6-fluoro-3-{(3R)-1-[2-hydroxy-5-(hydroxymethyl)benzoyl]pyrrolidin-3-yl}pyrido[2,3-d]pyrimidine-2,4(1H,3H)-dione]
10 | 9.2 | O=C(c1n[nH]c2ccccc12)N1CC[C@H](n2c(=O)c3cc(F)cnc3n(-c3ccc(F)c(F)c3)c2=O)C1 [Example 83, 1-(3,4-difluorophenyl)-6-fluoro-3-[(3S)-1-(1H-indazol-3-ylcarbonyl)pyrrolidin-3-yl]pyrido[2,3-d]pyrimidine-2,4(1H,3H)-dione]
11 | 57.3 | O=C([C@H](O)c1ccccc1)N1CC[C@H](n2c(=O)c3cc(F)cnc3n(-c3ccc(F)c(F)c3)c2=O)C1 [Example 84, 1-(3,4-difluorophenyl)-6-fluoro-3-{(3S)-1-[(2R)-2-hydroxy-2-phenylacetyl]pyrrolidin-3-yl}pyrido[2,3-d]pyrimidine-2,4(1H,3H)-dione]
12 | 0.996 | O=C(N[C@H]1CC[C@@H](n2c(=O)c3cc(F)cnc3n(-c3ccc(F)c(F)c3)c2=O)CC1)c1ccc2[nH]ccc2c1 [Example 85, N-{cis-4-[1-(3,4-difluorophenyl)-6-fluoro-2,4-dioxo-1,4-dihydropyrido[2,3-d]pyrimidin-3(2H)-yl]cyclohexyl}-1H-indole-5-carboxamide]
13 | 4.13 | O=C(N[C@H]1CC[C@@H](n2c(=O)c3cc(F)cnc3n(-c3ccc(F)c(F)c3)c2=O)CC1)c1cccc([N+](=O)[O-])c1 [Example 86, N-{cis-4-[1-(3,4-difluorophenyl)-6-fluoro-2,4-dioxo-1,4-dihydropyrido[2,3-d]pyrimidin-3(2H)-yl]cyclohexyl}-3-nitrobenzamide]
14 | 0.885 | O=C(N[C@H]1CC[C@@H](n2c(=O)c3cc(F)cnc3n(-c3ccc(F)c(F)c3)c2=O)CC1)c1cc2ccccc2[nH]1 [Example 87, N-{cis-4-[1-(3,4-difluorophenyl)-6-fluoro-2,4-dioxo-1,4-dihydropyrido[2,3-d]pyrimidin-3(2H)-yl]cyclohexyl}-1H-indole-2-carboxamide]
15 | 3.38 | O=C(N[C@H]1CC[C@@H](n2c(=O)c3cc(F)cnc3n(-c3ccc(F)c(F)c3)c2=O)CC1)c1ccc2[nH]cnc2c1 [Example 88, N-{cis-4-[1-(3,4-difluorophenyl)-6-fluoro-2,4-dioxo-1,4-dihydropyrido[2,3-d]pyrimidin-3(2H)-yl]cyclohexyl}-1H-benzimidazole-5-carboxamide]
16 | 10.8 | N#Cc1ccc(C(=O)N[C@H]2CC[C@@H](n3c(=O)c4cc(F)cnc4n(-c4ccc(F)c(F)c4)c3=O)CC2)cc1 [Example 89, 4-cyano-N-{cis-4-[1-(3,4-difluorophenyl)-6-fluoro-2,4-dioxo-1,4-dihydropyrido[2,3-d]pyrimidin-3(2H)-yl]cyclohexyl}benzamide]
17 | 6.11 | O=C(N[C@H]1CC[C@@H](n2c(=O)c3cc(F)cnc3n(-c3ccc(F)c(F)c3)c2=O)CC1)c1ccc2[nH]nnc2c1 [Example 90, N-{cis-4-[1-(3,4-difluorophenyl)-6-fluoro-2,4-dioxo-1,4-dihydropyrido[2,3-d]pyrimidin-3(2H)-yl]cyclohexyl}-1H-1,2,3-benzotriazole-5-carboxamide]
18 | 2.09 | O=C(N[C@H]1CC[C@@H](n2c(=O)c3cc(F)cnc3n(-c3ccc(F)c(F)c3)c2=O)CC1)c1ccc2ncsc2c1 [Example 91, N-{cis-4-[1-(3,4-difluorophenyl)-6-fluoro-2,4-dioxo-1,4-dihydropyrido[2,3-d]pyrimidin-3(2H)-yl]cyclohexyl}-1,3-benzothiazole-6-carboxamide]
19 | 7.83 | CC1=C(C(=O)N[C@H]2CC[C@@H](n3c(=O)c4cc(F)cnc4n(-c4ccc(F)c(F)c4)c3=O)CC2)SC2=NCCCN21 [Example 92, N-{cis-4-[1-(3,4-difluorophenyl)-6-fluoro-2,4-dioxo-1,4-dihydropyrido[2,3-d]pyrimidin-3(2H)-yl]cyclohexyl}-3-methyl-6,7-dihydro-5H-[1,3]thiazolo[3,2-a]pyrimidine-2-carboxamide]
20 | 11.7 | O=C(N[C@H]1CC[C@@H](n2c(=O)c3cc(F)cnc3n(-c3ccc(F)c(F)c3)c2=O)CC1)c1csnn1 [Example 93, N-{cis-4-[1-(3,4-difluorophenyl)-6-fluoro-2,4-dioxo-1,4-dihydropyrido[2,3-d]pyrimidin-3(2H)-yl]cyclohexyl}-1,2,3-thiadiazole-4-carboxamide]
21 | 5.31 | O=C(N[C@H]1CC[C@@H](n2c(=O)c3cc(F)cnc3n(-c3ccc(F)c(F)c3)c2=O)CC1)c1cn[nH]c1 [Example 94, N-{cis-4-[1-(3,4-difluorophenyl)-6-fluoro-2,4-dioxo-1,4-dihydropyrido[2,3-d]pyrimidin-3(2H)-yl]cyclohexyl}-1H-pyrazole-4-carboxamide]
22 | 3.39 | O=C(N[C@H]1CC[C@@H](n2c(=O)c3cc(F)cnc3n(-c3ccc(F)c(F)c3)c2=O)CC1)c1ccsc1 [Example 95, N-{cis-4-[1-(3,4-difluorophenyl)-6-fluoro-2,4-dioxo-1,4-dihydropyrido[2,3-d]pyrimidin-3(2H)-yl]cyclohexyl}thiophene-3-carboxamide]
23 | 6.68 | O=C(N[C@H]1CC[C@@H](n2c(=O)c3cc(F)cnc3n(-c3ccc(F)c(F)c3)c2=O)CC1)c1cc[nH]c1 [Example 96, N-{cis-4-[1-(3,4-difluorophenyl)-6-fluoro-2,4-dioxo-1,4-dihydropyrido[2,3-d]pyrimidin-3(2H)-yl]cyclohexyl}-1H-pyrrole-3-carboxamide]
24 | 2.18 | Cn1cnc(C(=O)N[C@H]2CC[C@@H](n3c(=O)c4cc(F)cnc4n(-c4ccc(F)c(F)c4)c3=O)CC2)c1 [Example 97, N-{cis-4-[1-(3,4-difluorophenyl)-6-fluoro-2,4-dioxo-1,4-dihydropyrido[2,3-d]pyrimidin-3(2H)-yl]cyclohexyl}-1-methyl-1H-imidazole-4-carboxamide]
25 | 50.1 | O=C(N[C@H]1CC[C@@H](n2c(=O)c3cc(F)cnc3n(-c3ccc(F)c(F)c3)c2=O)CC1)c1cc[nH]n1 [Example 98, N-{cis-4-[1-(3,4-difluorophenyl)-6-fluoro-2,4-dioxo-1,4-dihydropyrido[2,3-d]pyrimidin-3(2H)-yl]cyclohexyl}-1H-pyrazole-3-carboxamide]
26 | 2.12 | O=C(CCN1CCOCC1)N[C@H]1CC[C@@H](n2c(=O)c3cc(F)cnc3n(-c3ccc(F)c(F)c3)c2=O)CC1 [Example 100, N-{cis-4-[1-(3,4-difluorophenyl)-6-fluoro-2,4-dioxo-1,4-dihydropyrido[2,3-d]pyrimidin-3(2H)-yl]cyclohexyl}-3-morpholin-4-ylpropanamide]
27 | 2.05 | C=Cc1ccc(C(=O)N[C@H]2CC[C@@H](n3c(=O)c4cc(F)cnc4n(-c4ccc(F)c(F)c4)c3=O)CC2)cc1 [Example 101, N-{cis-4-[1-(3,4-difluorophenyl)-6-fluoro-2,4-dioxo-1,4-dihydropyrido[2,3-d]pyrimidin-3(2H)-yl]cyclohexyl}-4-vinylbenzamide]
